# Entries after “also recorded” stand apart in the source; their conditions may differ.
# Key:
# [1] = tested on: obese/high fat diet C57Bl/6J mice; test: DIO mouse model: oral glucose tolerance test; type: in vivo; conditions: DIO HFD mice, approx 6 mg/kg in diet, week 4
# Source text: The objective of this animal study was to evaluate the effects of Compound I in the mouse diet induced obesity (DIO) model. Assessments included body weight, food intake, oral glucose tolerance test (OGTT) and fasting plasma biomarkers of metabolic control.
# Male C57Bl/6J mice with baseline body weights of 25.0-29.0 grams (lean controls) and 31.5-45.0 grams (obese/high fat diet treated) respectively, were used for this study. The lean mice (n=8) were maintained on a standard chow diet. The obese mice were given 60% high fat diet (HFD) starting at 6 weeks of age. All animals were allowed free access to drinking water and chow. The study was begun when the mice were 12 weeks of age and concluded after 4 weeks (16 weeks of age). The obese control group (n=8 mice) was maintained on HFD. The Compound I group (n=8 obese mice) was treated with HFD containing 90 mg Compound I/kg (an approximate dose of 6 mg/kg). Body weights were determined twice weekly and food intake was measured daily for 28 days. An OGTT was performed on each animal at day 28 or 29 and the animals were sacrificed on the following day. On the terminal day, 3 hour fasted blood was collected for compound concentrations and plasma biomarkers analysis including glucose, insulin and triglycerides. Organs were collected, weighed and snap frozen in liquid nitrogen for further analysis.
# [2] = tested on: patients with stable type 2 diabetes and hypertension; test: Randomized placebo-controlled Phase 2a study of 2 dose regimens (NCT03091920), metabolic assessments; type: in vivo, human; conditions: for Apolipoprotein B Change LS Mean / Apolipoprotein B LS Mean Diff (placebo adjusted): serum; for serum triglycerides LS Mean Diff (placebo adjusted) / serum triglycerides LS Mean reduction from baseline: Day 15
# Procedure: The serum ApoB level was determined using microsphere-based HSP-ApoB assay, consisting of using antigen-specific antibodies optimized in a capture-sandwich format. 5 μL of a diluted mixture of capture-antibody microspheres were mixed with 5 μL bloker and 10 μL standard, pre-diluted sample, or control in a hard-bottom microtiter plate. Plama and serum samples were diluted of the appropriate dilution. The plate was incubated for 1 hour at room temperature. 10 μL biotinylated detection antibody was added to each well, thoroughly-mixed and incubated for 1 hour. 10 μL diluted Streptavidin-phycoerythrin was added to each well, thoroughly mixed, and incubated for 60 minutes. A filter-membrane microtiter plate was pre-wetted by adding 100 μL wash buffer followed by aspiration via a vaccum manifoled device. The reaction contents of the hard-bottom plate were then transferred to the respective wells of the filter plate. All wells were vacuum aspirated and the contents were washed twice with 100 μL wash buffer. After the last wash, 100 μL wash buffer was added to each well, and the washed microspheres were resuspended with thorough mixing. The plate was then analyzed on the Luminex platform.
# Plasma ADMA concentrations were determined by liquid chromatography and tandem mass spectrometry (LC-MS/MS). Plasma samples of the patients were collected in a purple-top container with K2 EDTA anticoagulant. The tube was filled completely and the sample was mixed well and separated by centrifugation. A minium volume of 0.20 mL was needed for testing and the plasma sample was extracted by a simple protein precipation. The supernatant was then transferred to a diluent before analysis. The extract was analyzed using liquid chromatography (LC) with tandem mass spectrometry (MS/MS). The standard curve was 10.0 ng/mL to 1000.0 ng/mL.
# The primary objectives of this clinical study (ClinicalTrials.gov Identifier: NCT03091920) were to compare the safety, tolerability, PK profile, and PD effects of 2 treatment regimens of Compound I tablet (40 mg per day, as 20 mg BID or as 40 mg QD) administered orally for 2 weeks to patients with stable type 2 diabetes mellitus and hypertension. Patients in this trial were on stable medications for glucose control (blood glucose lowering medication, antihyperglycemics) and hypertension (antihypertensives). Secondary measurements included assessment of fasting glucose levels, fasting insulin levels, hemoglobin A1C (HbA1C) levels, serum cholesterol levels, ApoB levels, HOMA-IR, ADMA concentrations, serum triglyceride levels, BMI, liver transaminases and body weight, among others.
# Allocation: Randomized; Intervention Model: Parallel Assignment; Masking: Triple (Participant, Care Provider, Investigator); Masking Description: Double-Blind; Primary Purpose: Treatment
# This is a randomized, double-blind, placebo-controlled study consisting of 3 distinct periods (see FIG. 30).
# 13 male patients and 13 female patientes with stable type 2 diabetes and hypertension were enrolled. Patients were randomized in a 5:5:3 ratio (QD:BID:Placebo) to receive 1 of 2 Compound I treatment regimens or placebo (all regimens were masked) as outlined in the table above.
# Clinic Period: The Clinic Period began at Check-in on Day-2 (2 days before dosing) and ended at the time of Discharge on Day 15. During the 17-day Clinic Period, patients were confined to the Study Center and received a standard diet for diabetics. Patients who met eligibility criteria based on Screening Visit assessments were admitted to the Study Center on Day-2 for baseline procedures. On the morning of Day 1 (there is no Day 0), eligible patients were randomized in a 5:5:3 ratio to 1 of 3 masked treatment regimens: QD/QD, BID/QD, or PBO/PBO. On Days 1 to 14, patients received a morning (AM) dose and an evening (PM) dose.
# Compound I was administered as multiples of a 5 mg oral tablet dosage form. Placebo was administered as multiples of a 5 mg tablet. […]
# [3] = 40 mg, regimens combined, 14 days
# [4] = subgroup of 18 patients on concomitant statin therapy, regimens combined, 14 days
smiles,measurement,setting,value
OC(CNc1nc(-c2cc(-c3ccon3)n(Cc3ccccc3F)n2)ncc1F)(C(F)(F)F)C(F)(F)F [Compound I],Fasting blood glucose,[1],not reduced
same,OGTT area above baseline change vs obese controls,[1]; P<0.05,−47%
same,OGTT area under the curve change vs obese controls,[1]; P<0.05,−22%
same,blood glucose excursion in OGTT vs obese controls,[1]; from 30 to 120 minutes,significant reductions
same,HDL cholesterol levels,"[2]; 40 mg total daily dose, over the trial",remained unchanged; also recorded: remained closed to baseline; also recorded: no changes
same,mean serum ALT decrease from baseline,[2]; [3],4.9 IU/L
same,mean serum AST decrease from baseline,[2]; [3],4.5 IU/L
same,mean serum GGT decrease from baseline,[2]; [3],2.4 U/L
same,Mean Apo-B levels decline in treated patients,[2]; 14 days,approximately 17%
same,HbA1C levels over placebo,[2]; 14 days of treatment,No meaningful improvements
same,plasma fasting glucose LS Mean reduction from baseline,"[2]; BID/QD (20 mg BID days 1-7; 40 mg QD days 8 to 14), day 15",-35.3 mg/dL
same,Apolipoprotein B Change LS Mean,"[2]; BID/QD (N = 10), day 15",-219.4 µg/mL
same,serum triglycerides LS Mean Diff (placebo adjusted),[2]; BID/QD,-14.3 mg/dL
same,serum triglycerides LS Mean reduction from baseline,[2]; BID/QD,-46.4 mg/dL
same,"LDL cholesterol Mean Diff (SE), placebo adjusted","[2]; BID/QD, day 15",−20.2 (9.2) mg/dL
same,"LDL cholesterol Mean reduction from baseline (SE), least square","[2]; BID/QD, day 15",−14.0 (5.6) mg/dL
same,plasma fasting glucose LS Mean Diff (placebo adjusted),"[2]; BID/QD, day 15",-15.6 mg/dL
same,serum cholesterol LS Mean Diff (placebo adjusted),"[2]; BID/QD, day 15",-20.9 mg/dL
same,serum cholesterol LS Mean reduction from baseline,"[2]; BID/QD, day 15",-20.2 mg/dL
same,serum LDL cholesterol reduced when compared to placebo,"[2]; BID/QD, day 15, after 14 days of treatment",about 20 mg/dL
same,serum LDL cholesterol reduced when compared to placebo,"[2]; BID/QD, day 15, % of total cholesterol",13%
same,Apolipoprotein B LS Mean Diff (placebo adjusted),"[2]; BID/QD, day 15",-168.9 µg/mL
same,plasma fasting glucose LS Mean reduction from baseline,"[2]; Combined group (BID/QD and QD/QD), day 15",-32.5 mg/dL
same,serum triglycerides LS Mean Diff (placebo adjusted),[2]; Combined group,-14.2 mg/dL
same,serum triglycerides LS Mean reduction from baseline,[2]; Combined group,-46.2 mg/dL
same,"LDL cholesterol Mean Diff (SE), placebo adjusted","[2]; Combined group, day 15",−20.2 (8.3) mg/dL
same,"LDL cholesterol Mean reduction from baseline (SE), least square","[2]; Combined group, day 15",−13.9 (4.0) mg/dL
same,plasma fasting glucose LS Mean Diff (placebo adjusted),"[2]; Combined group, day 15",-12.8 mg/dL
same,serum cholesterol LS Mean Diff (placebo adjusted),"[2]; Combined group, day 15",-25.5 mg/dL
same,serum cholesterol LS Mean reduction from baseline,"[2]; Combined group, day 15",-24.7 mg/dL
same,Apolipoprotein B Change LS Mean,"[2]; Overall 40 mg Total Daily Dose (N = 20), day 15",-169.5 µg/mL
same,plasma fasting glucose LS Mean reduction from baseline,"[2]; QD/QD (40 mg QD days 1 to 14), day 15",-29.6 mg/dL
same,Apolipoprotein B Change LS Mean,"[2]; QD/QD (N = 10), day 15",-119.6 µg/mL
same,serum triglycerides LS Mean Diff (placebo adjusted),[2]; QD/QD,-14.0 mg/dL
same,serum triglycerides LS Mean reduction from baseline,[2]; QD/QD,-46.0 mg/dL
same,"LDL cholesterol Mean Diff (SE), placebo adjusted","[2]; QD/QD, day 15",−19.9 (9.2) mg/dL
same,"LDL cholesterol Mean reduction from baseline (SE), least square","[2]; QD/QD, day 15",−13.7 (5.6) mg/dL
same,plasma fasting glucose LS Mean Diff (placebo adjusted),"[2]; QD/QD, day 15",-10.0 mg/dL
same,serum cholesterol LS Mean Diff (placebo adjusted),"[2]; QD/QD, day 15",-30.1 mg/dL
same,serum cholesterol LS Mean reduction from baseline,"[2]; QD/QD, day 15",-29.3 mg/dL
same,serum LDL cholesterol reduced when compared to placebo,"[2]; QD/QD, day 15, after 14 days of treatment",about 20 mg/dL
same,serum LDL cholesterol reduced when compared to placebo,"[2]; QD/QD, day 15, % of total cholesterol",13%
same,Apolipoprotein B LS Mean Diff (placebo adjusted),"[2]; QD/QD, day 15",-69.1 µg/mL
same,fasting plasma insulin levels over placebo,"[2]; all of 26 patients, including those on insulin therapy",no meaningful improvements
same,ADMA plasma concentration decrease from baseline,"[2]; combined Compound I group, 14 day study, baseline of 105 ng/ml",8.7 ng/mL
same,ADMA plasma concentration mean reduction adjusted to placebo,"[2]; combined group, after 14 days of treatment",about 11 ng/mL
same,serum ALT change compared to baseline,[2]; over 14 days,−4.9 IU/L
same,serum ALT reduction compared to baseline,[2]; over 14 days,20%
same,serum AST change compared to baseline,[2]; over 14 days,−4.5 IU/L
same,serum AST reduction compared to baseline,[2]; over 14 days,20%
same,"weight or BMI, adjusted to placebo",[2]; over the 14 days of treatment,No meaningful changes
same,fasting plasma insulin change adjusted to placebo,[2]; patients not on insulin,-13 pmol/L
same,reduction in HOMA-IR from baseline,"[2]; patients not taking concomitant insulin (12 on Compound I), 14 days",36%
same,reduction in HOMA-IR adjusted to placebo,"[2]; patients not taking concomitant insulin, 14 days",23%
same,"apolipoprotein B decline, Compound I vs. PBO-treated patients","[2]; post-hoc analysis, 14 days",-119 µg/mL
same,LDL cholesterol decrease in treated vs. placebo patients,[2]; [4],-16 mg/dL
same,total cholesterol decrease in treated vs. placebo patients,[2]; [4],-17 mg/dL
same,mean decrease of plasma blood glucose relative to placebo,"[2]; subgroup using only oral antihyperglycemic agents without insulin, regimens combined, 14 days",-19 mg/dL

# — patent US11389449B2, “Treatment of metabolic syndrome with an sGC stimulator” (Cyclerion Therapeutics, Inc., priority 2017, dated 2022)
